The values that follow are results of earlier work, collected in US20120097160A1, “AGGLOMERATE FORMULATIONS INCLUDING ACTIVE PHARMACEUTICAL AGENTS WITH TARGETED PARTICLE SIZES” (SCHERING CORPORATION, priority 2009, published 2012).

Where two headings read alike, the source gives them in different places.

Regarding `C[C@@H]1C[C@H]2[C@@H]3CCC4=CC(=O)C=C[C@]4(C)[C@@]3(Cl)[C@@H](O)C[C@]2(C)[C@@]1(OC(=O)c1ccco1)C(=O)CCl` [Mometasone furoate, 9,21-Dichloro-11(beta), 17-dihydroxy-16(alpha)-methylpregna-1,4-diene-3,20-dione 17-(2 furoate)], the solubility entry (acetone) was “soluble”; the solubility entry (chloroform) is given as “soluble”; the solubility entry (ethanol) is “slightly soluble”; the solubility entry (isopropanol) is listed as “slightly soluble”; the solubility result (methanol) is on record as “slightly soluble”; the solubility result (tetrahydrofuran) is given as “freely soluble”. Besides, under “water”, the solubility entry was “practically insoluble”.
